Measured values from patent US6399629B1, “Efflux pump inhibitors” (priority 1998, dated 2002).

System: Pseudomonas aeruginosa PAM1001
Assay: checkerboard assay (broth microdilution): levofloxacin MIC in presence of efflux pump inhibitor
Type: cell-based
Experimental: For compounds labeled with the prefix ‘M’, potentiation effect is observed by the reduction of the minimum inhibitory concentration of levofloxacin in the presence of the experimental efflux pump inhibitor. The activity of efflux pump inhibitors (EPI) in combination with fluoroquinolones, such as levofloxacin, is assessed by the checkerboard assay (Antimicrobial Combinations. In Antibiotics in Laboratory Medicine, Ed. Victor Lorian, M.D., Fourth edition, 1996, pp 333-338) using broth microdilution method performed as recommended by the National Committee for Clinical Laboratory Standards (1997). Methods for Dilution of Antimicrobial Susceptibility Tests for Bacteria That Grow Aerobically—Fourth Edition; Approved Standard. NCCLS Document M7-A4, Vol 17 No.2). The test organism used is Pseudomonas aeruginosa PAM1001. […] The compounds tabulated below are representative of the described invention.
In these assays, multiple dilutions of two drugs, namely the EPI and levofloxacin, are being tested, alone and in combination, at concentrations equal to, above and below their respective minimal inhibitory concentrations (MICs). In the case of EPI, most of these compounds are devoid of intrinsic antimicrobial activity and are tested up to the maximum concentration of 40 μg/mL. The MIC of levofloxacin against P. aeruginosa PAM1001 is 4 μg/mL.
The EPI tested are readily soluble in water and stock solutions are prepared at a final concentration of 2 mg/mL. Stock solutions are further diluted, according to the needs of a particular assay, in Mueller Hinton Broth (MHB). Stock solution can be stored at −80° C. Quinolones are solubilized according to the instructions of the manufacturers, at a concentration of 1 mg/mL. They are then further diluted in MHB. Stock solution can be stored at −80° C.
The checkerboard assay is performed in microtiter plates. Levofloxacin is diluted in the x axis, each column containing a single concentration of levofloxacin. The EPI is diluted in the y axis, each row containing an equal concentration of EPI. The result of these manipulations is that each well of the microtiter plate contains a unique combination of concentrations of the two agents. Each EPI are tested independently.
The assay is performed in MHB with a final bacterial inoculum of 5×10^5 CFU/mL (from an early-log phase culture). Microtiter plates are incubated during 20 h at 35° C. and are read using a microtiter plate reader (Molecular Devices) at 650 nm as well as visual observation using a microtiterplate reading mirror.

| SMILES | Levofloxacin MIC Against P. aerugiuosa PAM1001 in Presence of Efflux Pump Inhibitor (EPI), Minimum Inhibitory Concentration (EPI Conc. 0 μg/mL) | Levofloxacin MIC Against P. aerugiuosa PAM1001 in Presence of Efflux Pump Inhibitor (EPI), Minimum Inhibitory Concentration (EPI Conc. 0.625 μg/mL) | Levofloxacin MIC Against P. aerugiuosa PAM1001 in Presence of Efflux Pump Inhibitor (EPI), Minimum Inhibitory Concentration (EPI Conc. 1.25 μg/mL) | Levofloxacin MIC Against P. aerugiuosa PAM1001 in Presence of Efflux Pump Inhibitor (EPI), Minimum Inhibitory Concentration (EPI Conc. 2.5 μg/mL) | Levofloxacin MIC Against P. aerugiuosa PAM1001 in Presence of Efflux Pump Inhibitor (EPI), Minimum Inhibitory Concentration (EPI Conc. 5 μg/ mL) | Levofloxacin MIC Against P. aerugiuosa PAM1001 in Presence of Efflux Pump Inhibitor (EPI), Minimum Inhibitory Concentration (EPI Conc. 10 μg/mL) | Levofloxacin MIC Against P. aerugiuosa PAM1001 in Presence of Efflux Pump Inhibitor (EPI), Minimum Inhibitory Concentration (EPI Conc. 20 μg/mL) | Levofloxacin MIC Against P. aerugiuosa PAM1001 in Presence of Efflux Pump Inhibitor (EPI), Minimum Inhibitory Concentration (EPI Conc. 40 μg/mL) |
| --- | --- | --- | --- | --- | --- | --- | --- | --- |
| NC[C@@H]1CN[C@@H](C(=O)N[C@H](CCc2ccccc2)C(=O)NCc2cnc3ccccc3c2)C1 [Compound M32] | 4 µg/mL | 4 µg/mL | 4 µg/mL | 4 µg/mL | 2 µg/mL | 1 µg/mL | 0.25 µg/mL | 0.25 µg/mL |
| NCC(=O)N[C@H]1CN[C@H](C(=O)N[C@H](Cc2ccc(F)cc2)C(=O)Nc2cnc3ccccc3c2)C1 [Compound M21, (2S,4R)-4-(2-Aminoacetamido)-N-[(1R)-2-(4-fluorophenyl)-1-(3-quinolylcarbamoyl)ethyl]-2-pyrrolidnecarboxamide] | 4 µg/mL | 4 µg/mL | 4 µg/mL | 2 µg/mL | 2 µg/mL | 0.25 µg/mL | 0.06 µg/mL | 0.015 µg/mL |
| CC(C)C[C@H](COc1cnc2ccccc2c1)NC(=O)[C@H]1C[C@H](CN)CN1 [Compound M59, (2R,4R)-4-(Aminomethyl)-N-[(1R)-3-methyl-1-[(3-quiolyloxy)methyl]butyl]-2-pyrrolidinecarboxamide] | 4 µg/mL | 4 µg/mL | 4 µg/mL | 4 µg/mL | 4 µg/mL | 1 µg/mL | 0.5 µg/mL | 0.125 µg/mL |
| CC(C)C[C@@H](NC(=O)[C@H]1C[C@H](CN)CN1)C(=O)Nc1cnc2ccccc2c1 [Compound M34, (2R,4R)-4-(Aminomethyl)-N-[(1R)-3-methyl-1-(3-quinolylcarbamoly)butyl]-2-pyrrolidinecarboxamide] | 4 µg/mL | 4 µg/mL | 4 µg/mL | 4 µg/mL | 4 µg/mL | 2 µg/mL | 1 µg/mL | 0.5 µg/mL |
| NCC(=O)N[C@H]1CN[C@H](C(=O)NCc2nc3ccccc3n2CCc2ccccc2)C1 [Compound M80, (2S,4R)-4-(2-Aminoacetamido)-N-[(1-(2-phenyl)ethyl-2-benzimidazoly)methyl]-2-pyrrolidinexarboxamide] | 4 µg/mL | 4 µg/mL | 4 µg/mL | 4 µg/mL | 2 µg/mL | 0.25 µg/mL | 0.06 µg/mL | 0.06 µg/mL |
| NCCCC1CN[C@H](C(=O)N[C@H](CCc2ccccc2)C(=O)Nc2cnc3ccccc3c2)C1 (mixture of isomers) [Compound M93, (2S,4RS)-4-(3-Aminopropyl)-N-[(1R)-3-phenyl-1-(3-quiolylcarbamoyl)propyl]-2-pyrrolidinecarboxamide] | 4 µg/mL | 4 µg/mL | 2 µg/mL | 0.25 µg/mL | 0.125 µg/mL | 0.015 µg/mL | 0.015 µg/mL | 0.008 µg/mL |
| CC(C)CC(NC(=O)C1CC(CN)CN1)C(=O)Nc1cnc2ccccc2c1 [Compound M13, (2R,4R)-4-(Aminomethyl)-N-[(1R)-3-methyl-1-quinolylcarbanioyl)bulyl]-2-pyrrolidinecarboxamide] | 4 µg/mL | 4 µg/mL | 4 µg/mL | 2 µg/mL | 1 µg/mL | 0.06 µg/mL | 0.06 µg/mL | 0.06 µg/mL |
| NC[C@@H]1CN[C@@H](C(=O)N[C@H](CCc2ccccc2)CNC(=O)c2cnc3ccccc3c2)C1 [Compound M103, (2R,4R)-4-(Aminomethyl)-N-[(1R)-3-phenyl-1-[(3-quinolylcarboxamido)methyl]propyl]-2-pyrrolidinecarboxamide] | 4 µg/mL | 4 µg/mL | 4 µg/mL | 4 µg/mL | 2 µg/mL | 1 µg/mL | 0.03 µg/mL | 0.015 µg/mL |
| COc1cc(C)c2ncc(NC(=O)[C@@H](CC(C)C)NC(=O)[C@@H]3C[C@@H](NC(=O)CN)CN3)cc2c1 [Compound M10, (2S,4R)-4-(2-Aminoacetamido)-N-[(1R)-3-3-methyl-1-(6-methoxy-8-methyl-3-quinolylcarbamoyl)butyl]-2-pyrrolidinecarboxamide] | 4 µg/mL | 4 µg/mL | 4 µg/mL | 4 µg/mL | 4 µg/mL | 4 µg/mL | 1 µg/mL | 0.06 µg/mL |
